Paper PMC12064818, “A general assay platform to study protein pharmacology using ligand-dependent structural dynamics” (Nature Communications, 2025)

Target: T1, FLuc-C-HiBiT (Photinus pyralis, UniProt P08659)
T1 construct: firefly luciferase with C-terminal HiBiT tag, E. coli expressed
Assay: biochemical
Conditions: enzyme activity, 10 uM ATP; read-out: IC50 or SDR50 (mM) / FLuc E

T1 sequence (P08659 whole entry, looked up): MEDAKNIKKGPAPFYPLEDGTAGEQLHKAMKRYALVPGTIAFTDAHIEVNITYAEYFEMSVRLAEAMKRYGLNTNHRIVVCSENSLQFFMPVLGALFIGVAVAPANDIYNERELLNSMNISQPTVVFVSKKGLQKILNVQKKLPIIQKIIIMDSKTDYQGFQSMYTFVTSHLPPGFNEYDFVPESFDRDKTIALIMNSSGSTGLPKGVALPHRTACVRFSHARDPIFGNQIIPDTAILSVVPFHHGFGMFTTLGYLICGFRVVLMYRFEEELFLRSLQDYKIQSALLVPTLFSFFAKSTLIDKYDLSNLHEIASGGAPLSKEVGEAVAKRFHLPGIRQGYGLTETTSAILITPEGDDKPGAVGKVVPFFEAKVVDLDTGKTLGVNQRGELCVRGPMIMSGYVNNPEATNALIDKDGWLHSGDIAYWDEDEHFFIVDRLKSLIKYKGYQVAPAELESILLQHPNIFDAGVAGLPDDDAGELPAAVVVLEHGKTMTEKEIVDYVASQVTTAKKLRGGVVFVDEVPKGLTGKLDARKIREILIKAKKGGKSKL

Structure (SMILES)	IC50
Cc1cccc(-c2nnc(SCCC(=O)O)o2)c1 [NCGC00103138-01]	4.95 µM
NC(=O)c1cccc(-c2cc3c(cn2)CN(Cc2ccccc2)CCN3)c1 [NCGC00411232-01]	20.2 µM
O=C(NCc1ccco1)Nc1cccc(-c2ccc(N3CCCC3)nn2)c1 [NCGC00427562-01]	9.89 µM
CC(=O)N1CCc2ccc(C(=O)NC3CCCCCC3)cc21 [NCGC00430256-01]	6.24 µM
C#CCn1c(/C=C/c2ccc(Cl)cc2)nc2ccccc21 [NCGC00114864-01]	0.624 µM
Nc1nn(-c2ccccc2)nc1C(=O)OCc1ccccc1 [NCGC00102837-01]	> 30 µM
COc1ccc(-c2nc3ccccc3s2)cc1NC(C)=O [NCGC00141118-01]	6.24 µM
COc1ccc(NC(=O)Nc2ccc(C)n(CC(=O)NCC(C)C)c2=O)cc1 [NCGC00430836-01]	3.51 µM
CCN1c2cc(C(=O)Nc3ccc4c(c3)OCCO4)ccc2C(=O)N2CCCCCC21 (stereo not shown) [NCGC00452264-01]	9.89 µM
Cc1ccc(-n2nc(C)c([C@@H]3C=C[C@@H](NC(=O)NC(C)C)C3)c2C)cc1Cl [NCGC00399958-01]	14.3 µM
CC(=O)NCCC1CCN(C(=O)Nc2ccc(C)cc2)CC1 [NCGC00424871-01]	12.4 µM
O=C(Nc1cccnc1)c1cc(-c2ccc(Cl)cc2)on1 [NCGC00105781-01]	2.48 µM
Clc1cccc(-n2ncc3c(N4CCCCC4)ncnc32)c1 [NCGC00139126-01]	0.989 µM
COc1ccc(NC(=O)c2cc3c(=O)[nH]c(C)cn3n2)cc1OC [NCGC00453925-01]	9.89 µM
O=C(Nc1cccc(-c2ccc(N3CCOCC3)nn2)c1)Nc1cccc(C(F)(F)F)c1 [NCGC00427594-01]	4.95 µM
Cc1nonc1COc1ccc(C(=O)Nc2cccc(-c3nc4ccccc4s3)c2)cc1 [NCGC00688799-01]	9.89 µM
O=C(Nc1cccc(-c2nc3ccccc3[nH]2)c1)c1ccccc1F [NCGC00099429-01]	14 µM
COc1ccc(CNC(=O)c2ccc3c(c2)N=C(C)c2c(C)ccc(C)c2S3)cc1 [NCGC00112026-02]	> 30 µM
Cc1n[nH]c2c1C(c1ccc(Cl)cc1)C(C#N)=C(N)O2 (stereo not shown) [NCGC00027933-02]	> 30 µM
O=C(Nc1ccccc1-c1nc2ccccc2s1)c1cc(Cl)cc(Cl)c1 [NCGC00135642-01]	> 30 µM
N[S+](=O)([O-])c1cccc(N/C=C2\C(=O)Nc3ccccc32)c1 [NCGC00242167-02]	> 30 µM
Cc1ccc(-c2nc3ccccc3s2)cc1NC(=O)COc1ccccc1 [NCGC00098596-01]	> 30 µM

Structure (SMILES)	IC50
Fc1ccc(NCc2ccccc2-c2nnc(-c3ccccc3Cl)o2)cc1Cl [NCGC00107402-01]	15.7 µM
Cc1cc(NC(=O)c2ccccc2F)ccc1-c1nc2ccccc2s1 [NCGC00137834-01]	2.48 µM
CCn1cc(-c2cc3c(cn2)CN(C)CCN3)cn1 [NCGC00411244-01]	22.6 µM
COc1cccc(C(=O)Nc2ccc(O)c(-c3nc4ccccc4s3)c2)c1 [NCGC00594707-01]	> 30 µM
O=C(O)c1cccc(-c2noc(-c3cccc([N+](=O)[O-])c3)n2)c1 [NCGC00253775-01]	0.007 µM
COc1ccc(OCC(=O)Nc2cc(-c3nc4ccccc4s3)ccc2C)cc1 [NCGC00098594-01]	12.4 µM
CC(C)(Oc1nn(CC2CC2)c2ccc(CN3CCCC3)cc12)C(=O)NC1CCOCC1 [NCGC00419513-01]	> 30 µM
Cc1ccc(/C=C/c2nc3ccccc3n2S(=O)(=O)c2cccc(Cl)c2)cc1 [NCGC00140605-01]	0.124 µM
COc1ccc(-n2cc(C3=CCN(CCN4CCOCC4)CC3)cn2)cc1 [NCGC00432106-01]	9.89 µM
Clc1ccc(-c2nc(-c3ccccn3)no2)cc1Cl [NCGC00075852-01]	5.56 µM
COc1cccc(CNc2nc3ccccc3c3nc(-c4cccc(C)c4)nn23)c1 [NCGC00112594-01]	7.85 µM
COc1ccc(/C=C/c2ccc3c(c2)C(=O)N2CC[C@H](NC(=O)COCC(=O)O)[C@H]2C(=O)N3)cc1 [NCGC00421238-01]	9.89 µM
COCCN1CCNc2cc(Nc3cccc(OC)c3)ncc2C1 [NCGC00411124-01]	18 µM
Cc1ccc(-n2ncc3c(NC4CCCC4)ncnc32)cc1 [NCGC00138985-01]	0.624 µM
CCc1nc(-c2ccc(OC3CCN(C(=O)C4CC4)C3)cc2)no1 (stereo not shown) [NCGC00440987-01]	12.4 µM
O=C(O)c1ccccc1-c1noc(-c2ccccc2F)n1 [NCGC00183910-01]	15.7 µM
COc1cccc(-c2cccc(COc3cnc4c(ccn4CC(=O)O)c3)c2)c1F [NCGC00418177-01]	12.8 µM
COc1ccc(NC(=O)Nc2cccc(-c3ccc(N4CCCCC4)nn3)c2)c(OC)c1 [NCGC00427636-01]	0.989 µM
Cc1ccc(-c2cc3c(=O)n(CCNC(=O)c4cccc(Cl)c4)ccn3n2)c(C)c1 [NCGC00456978-01]	3.94 µM
CN1CCCN(C(=O)Nc2ccc3c(c2)OCCO3)c2ccccc21 [NCGC00470832-01]	9.89 µM
Cc1ccc(-c2nc(C(=O)N3CCN(c4ccccn4)CC3)no2)cc1 [NCGC00447133-01]	7.85 µM
COc1ccccc1C(=O)NCCn1ccn2nc(-c3ccc(C)cc3C)cc2c1=O [NCGC00456987-01]	9.89 µM

Structure (SMILES)	IC50
Cc1cc(F)ccc1NC(=O)c1csc2c1CCC(C)C2 (stereo not shown) [NCGC00112512-01]	2.79 µM
Clc1cccc(Nc2cc3c(cn2)CN(Cc2cccnc2)CCN3)c1 [NCGC00411094-01]	12.8 µM
Nc1ncnc2c1ncn2[C@H]1O[C@H](CO)[C@@H](O)[C@@H]1O [NCGC00262556-01]	> 30 µM
O=C(c1ccc(F)cc1)N1CCn2c(nnc2C2CC2)C1 [NCGC00480252-01]	> 30 µM
COc1ccc(-c2nc3ccc(N[S+](C)(=O)[O-])cc3o2)cc1 [NCGC00119094-01]	5.56 µM
O=C(c1ccccc1C(F)(F)F)N1CCOc2c(cc(-c3nc4ccccc4s3)cc2OC2CCOC2)C1 (stereo not shown) [NCGC00240022-01]	> 30 µM
COc1ccc(CCNC(=O)C2CCCN(c3nc4c(C)cc(C)cc4s3)C2)cc1OC (stereo not shown) [NCGC00113075-01]	5.56 µM
O=C1NCCCCCCN(C(=O)Nc2ccc3c(c2)OCCO3)[C@H]2CCCC[C@@H]12 [NCGC00466580-01]	8.81 µM
Cc1ccc(-c2cc3c(=O)n(CCNC(=O)c4nccc5ccccc45)ccn3n2)c(C)c1 [NCGC00456974-01]	8.81 µM
O=C(Nc1cc(F)cc(F)c1)Nc1cccc(-c2ccc(N3CCOCC3)nn2)c1 [NCGC00427624-01]	3.13 µM
CC(=O)c1ccc(NC(=O)CSc2nnc(NC(=O)Nc3ccccc3)s2)cc1 [NCGC00136900-01]	0.881 µM
O=C(Nc1ccccc1C(=O)O)c1cccc([S+](=O)([O-])N2CCCC2)c1 [NCGC00098464-01]	12.4 µM
COc1ccc(CN2C[C@H](O)C[C@H]2c2nc(-c3ccc(OC)cc3)no2)cc1 [NCGC00400669-01]	14.3 µM
CCOc1ccccc1NC(=O)Nc1cccc(-c2ccc(N3CCOCC3)nn2)c1 [NCGC00427574-01]	3.94 µM
Cc1ccc(-n2nc(C)c([C@H]3C=C[C@@H](O)C3)c2C)cc1Cl [NCGC00394636-01]	12.8 µM
Cc1cc(-c2nc3ccccc3s2)ccc1NC(=O)c1cc(Cl)ccc1Cl [NCGC00102363-01]	> 30 µM
CN(C)C1CCN(c2ncnc3c2cnn3-c2ccccc2)CC1 [NCGC00608115-01]	> 30 µM
COc1ccc(-c2cc3nc4c(c(=O)n3[nH]2)CN(C(=O)NCc2ccco2)CC4)cc1 [NCGC00440289-01]	11.1 µM
CNc1nc(C(=O)NCc2ccc3[nH]c(-c4ccc(F)cc4)c(C)c3c2)cs1 [NCGC00443141-01]	11.1 µM
Cn1nc(-c2ccc3c(c2)OCCO3)nc1N1CCCCC1 [NCGC00447616-01]	9.89 µM
COc1ccc(C(=O)NCCC2CCN(C(=O)Nc3cc(F)cc(F)c3)CC2)cc1 [NCGC00425013-01]	9.89 µM
Cc1ccc(NC(=O)Nc2ccc(C)n(CC(=O)NC(C)(C)C)c2=O)cc1 [NCGC00430790-01]	3.94 µM

Structure (SMILES)	IC50
Cc1nn(-c2cccc(Br)c2)c(C)c1[C@@H]1C=C[C@@H](NC(=O)CC(C)(C)CC(=O)O)C1 [NCGC00401591-01]	> 30 µM
Cc1ccc(-c2cccc(COc3cnc4c(ccn4CC(=O)O)c3)c2)cc1 [NCGC00418171-01]	8.05 µM
c1ccc2sc(-c3cc4c(c(OC5CCOC5)c3)OCCN(Cc3cccn3-c3nccs3)C4)nc2c1 (stereo not shown) [NCGC00240062-01]	> 30 µM
CN1Cc2ccc(C(=O)NCCOc3ccccc3)cc2OCC1=O [NCGC00418504-01]	20.2 µM
COc1ccc(C(=O)Nc2ccccc2-c2nc3ccccc3s2)c(OC)c1 [NCGC00135640-01]	> 30 µM
Cc1ccc(C2Cn3nnc(C(=O)N4CCC(C(=O)NCCc5cccs5)CC4)c3CO2)cc1 (stereo not shown) [NCGC00449541-01]	9.89 µM
CC(=O)Nc1ccc(NC(=O)c2cc(-c3ccc4c(c3)OCCO4)on2)cc1 [NCGC00118853-01]	0.624 µM
COc1ccccc1NC(=O)Nc1cccc(-c2ccc(N3CCOCC3)nn2)c1 [NCGC00427580-01]	3.13 µM
O=C(Nc1cc(Cl)cc(Cl)c1)c1ccn2nccc2c1 [NCGC00477139-01]	18 µM
c1ccc(-c2noc(-c3ccc(OC4CNC4)cc3)n2)cc1 [NCGC00441173-01]	2.79 µM
OCC1CCN(c2ncnc3c2cnn3-c2ccccc2)CC1 [NCGC00608116-01]	12.4 µM
CC1CCN(C(=O)c2cc3c(s2)CCC(C(=O)O)C3)CC1 (stereo not shown) [NCGC00432771-01]	14 µM
CN1CCNc2cc(Nc3ccc(F)c(Cl)c3)ncc2C1 [NCGC00411263-01]	12.8 µM
COc1cccc(-c2nc3ccc(-c4ccc5c(c4)OCO5)cc3o2)c1OC [NCGC00474498-01]	2.48 µM
Cc1ccc(-c2cc3c(=O)n(CCNC(=O)c4cccnc4)ccn3n2)c(C)c1 [NCGC00456961-01]	9.89 µM
CCN(c1ncnc2c1cnn2-c1cccc(Cl)c1)C1CCCCC1 [NCGC00139112-01]	5.56 µM
CCNc1cc(N2CCC(CCC(=O)O)CC2)ncn1 [NCGC00432807-01]	5.56 µM
O=C(O)c1ccc(-c2noc(-c3ccccc3C(F)(F)F)n2)cc1 [NCGC00168105-01]	12.4 µM
Cc1ccc2nc(-c3ccc(NC(=O)CSc4nnc(C)s4)cc3)sc2c1 [NCGC00598135-01]	0.624 µM
